melting point | SMILES
183 to 184 °C | COC(=O)c1ccc(-c2nc(-c3ccc(Cl)cc3)co2)cc1 [Example 1, methyl 4-[4-(4-chlorophenyl)-2-oxazolyl]benzoate]
182 to 183 °C | COC(=O)c1ccc(-c2nc(-c3ccc(C(F)(F)F)cc3)co2)cc1 [Example 2, methyl 4-[4-(4-trifluoromethylphenyl)-2-oxazolyl]benzoate]
200 to 202 °C | COC(=O)c1ccc(-c2nc(-c3ccc(OC)cc3)co2)cc1 [Example 3, methyl 4-[4-(4-methoxyphenyl)-2-oxazolyl]benzoate]
175 to 176 °C | COC(=O)c1ccc(-c2nc(-c3ccccc3)co2)cc1 [Example 4, methyl 4-(4-phenyl-2-oxazolyl)benzoate]
110 to 112 °C | CCOC(=O)c1ccc(-c2coc(-c3ccccc3)n2)cc1 [Example 5, ethyl 4-(2-phenyl-4-oxazolyl)benzoate]
153 to 154 °C | CCOC(=O)c1ccc(-c2coc(-c3ccc(Cl)cc3)n2)cc1 [Example 6, ethyl 4-[2-(4-chlorophenyl)-4-oxazolyl)benzoate]
189 to 190 °C | COC(=O)c1ccc(-c2nc(-c3ccc(Cl)s3)co2)cc1 [Example 7, methyl 4-[4-(5-chloro-2-thienyl)-2-oxazolyl]benzoate]
286 to 287 °C | COc1ccc(-c2coc(-c3ccc(C(=O)O)cc3)n2)cc1 [Example 10, 4-[4-(4-methoxyphenyl)-2-oxazolyl]benzoic acid]
275 to 276 °C | O=C(O)c1ccc(-c2nc(-c3ccccc3)co2)cc1 [Example 11, 4-(4-phenyl-2-oxazolyl]benzoic acid]
271 to 273 °C | O=C(O)c1ccc(-c2coc(-c3ccccc3)n2)cc1 [Example 12, 4-(2-phenyl-4-oxazolyl]benzoic acid]
288 to 289 °C | O=C(O)c1ccc(-c2coc(-c3ccc(Cl)cc3)n2)cc1 [Example 13, 4-[2-(4-chlorophenyl)-4-oxazolyl]benzoic acid]
≥ 300 °C | O=C(O)c1ccc(-c2nc(-c3ccc(Cl)s3)co2)cc1 [Example 14, 4-[4-(5-chloro-2-thienyl)-2-oxazolyl]benzoic acid]
264 to 265 °C | O=C(O)c1ccc(-c2nc(-c3ccccc3C(F)(F)F)co2)cc1 [Example 15, 4-[4-(2-trifluoromethylphenyl)-2-oxazolyl]benzoic acid]
134 to 135 °C | COC(=O)c1ccc(-c2nc(-c3cccc(C(F)(F)F)c3)co2)cc1 [Example 16, methyl 4-[4-(3-trifluoromethylphenyl)-2-oxazolyl]benzoate]
180 to 181 °C | COC(=O)c1ccc(-c2nc(-c3cc(C(F)(F)F)cc(C(F)(F)F)c3)co2)cc1 [Example 17, methyl 4-[4-[3,5-bis(trifluoromethyl)phenyl]-2-oxazolyl]benzoate]
160 to 161 °C | COC(=O)c1ccc(-c2nc(-c3ccc(OC(F)F)cc3)co2)cc1 [Example 18, methyl 4-[4-(4-difluoromethoxylphenyl)-2-oxazolyl]benzoate]
168 to 170 °C | CCOC(=O)c1ccc(-c2coc(-c3ccc(C(F)(F)F)cc3)n2)cc1 [Example 19, ethyl 4-[2-(4-trifluoromethylphenyl)-4-oxazolyl]benzoate]
132 to 133 °C | CCOC(=O)c1ccc(-c2coc(-c3cccc(C(F)(F)F)c3)n2)cc1 [Example 20, ethyl 4-[2-(3-trifluoromethylphenyl)-4-oxazolyl]benzoate]
151 to 152 °C | COC(=O)c1cccc(-c2nc(-c3ccc(C(F)(F)F)cc3)co2)c1 [Example 21, methyl 3-[4-(4-trifluoromethylphenyl)-2-oxazolyl]benzoate]
253 to 254 °C | O=C(O)c1ccc(-c2nc(-c3cccc(C(F)(F)F)c3)co2)cc1 [Example 22, 4-[4-(3-trifluoromethylphenyl)-2-oxazolyl]benzoic acid]
277 to 279 °C | O=C(O)c1ccc(-c2nc(-c3cc(C(F)(F)F)cc(C(F)(F)F)c3)co2)cc1 [Example 23, 4-[4-[3,5-bis(trifluoromethyl)phenyl)-2-oxazolyl]benzoic acid]
261 to 262 °C | O=C(O)c1ccc(-c2nc(-c3ccc(OC(F)F)cc3)co2)cc1 [Example 24, 4-[4-(4-difluoromethoxylphenyl)-2-oxazolyl]benzoic acid]
294 to 295 °C | O=C(O)c1ccc(-c2coc(-c3ccc(C(F)(F)F)cc3)n2)cc1 [Example 25, 4-[2-(4-trifluoromethylphenyl)-4-oxazolyl]benzoic acid]
268 to 269 °C | O=C(O)c1ccc(-c2coc(-c3cccc(C(F)(F)F)c3)n2)cc1 [Example 26, 4-[2-(3-trifluoromethylphenyl)-4-oxazolyl]benzoic acid]
206 to 208 °C | O=C(O)c1cccc(-c2nc(-c3ccc(C(F)(F)F)cc3)co2)c1 [Example 27, 3-[4-(4-trifluoromethylphenyl)-2-oxazolyl]benzoic acid]
146 to 148 °C | COC(=O)c1ccc(-c2nc(-c3ccc(OC(F)F)cc3)cs2)cc1 [Example 28, methyl 4-[4-(4-difluoromethoxyphenyl)-2-thiazolyl]benzoate]

melting point | SMILES
186 to 187 °C | COC(=O)c1ccc(-c2nc(-c3ccc(Cl)cc3)cs2)cc1 [Example 29, methyl 4-[4-(4-chlorophenyl)-2-thiazolyl]benzoate]
171 to 172 °C | COC(=O)c1ccc(-c2nc(-c3ccc(Cl)s3)cs2)cc1 [Example 30, methyl 4-[4-(5-chloro-2-thienyl)-2-thiazolyl]benzoate]
234 to 236 °C | Br.CCOC(=O)c1ccc(-c2csc(-c3cccnc3)n2)cc1 [Example 31, ethyl 4-[2-(3-pyridyl)-4-thiazolyl]benzoate hydrobromide]
185 to 187 °C | COC(=O)c1ccc(-c2nc(-c3ccc(C)cc3)cs2)cc1 [Example 33, methyl 4-[4-(4-methylphenyl)-2-thiazolyl]benzoate]
241 to 242 °C | Br.COC(=O)c1ccc(-c2nc(-c3cccnc3)cs2)cc1 [Example 34, methyl 4-[4-(3-pyridyl)-2-thiazolyl]benzoate hydrobromide]
238 to 240 °C | Br.COC(=O)c1ccc(-c2nc(-c3ccncc3)cs2)cc1 [Example 35, methyl 4-[4-(4-pyridyl)-2-thiazolyl]benzoate hydrobromide]
248 to 250 °C | Br.CCOC(=O)c1ccc(-c2csc(-c3ccncc3)n2)cc1 [Example 36, ethyl 4-[2-(4-pyridyl)-4-thiazolyl]benzoate hydrobromide]
243 to 244 °C | Br.COC(=O)c1ccc(-c2nc(-c3ccccn3)cs2)cc1 [Example 38, methyl 4-[4-(2-pyridyl)-2-thiazolyl]benzoate hydrobromide]
234 to 236 °C | CCOC(=O)c1ccc(-c2csc(-c3ccc(Cl)cc3)n2)s1 [Example 39, ethyl 5-[2-(4-chlorophenyl)-4-thiazolyl]-2-thienylcarboxylate]
132 to 134 °C | COC(=O)c1ccc(-c2nc(-c3cccc(OC(F)(F)F)c3)cs2)cc1 [Example 40, methyl 4-[4-(3-trifluoromethoxyphenyl)-2-thiazolyl]benzoate]
138 to 139 °C | COC(=O)c1ccc(-c2nc(-c3ccc(OC(F)(F)F)cc3)cs2)cc1 [Example 41, methyl 4-[4-(4-trifluoromethoxyphenyl)-2-thiazolyl]benzoate]
141 to 142 °C | COC(=O)c1ccc(-c2nc(-c3c(F)c(F)c(F)c(F)c3F)cs2)cc1 [Example 42, methyl 4-[4-(2,3,4,5,6-pentafluorophenyl)-2-thiazolyl]benzoate]
150 to 151 °C | COC(=O)c1ccc(-c2nc(-c3cccc(Cl)c3)cs2)cc1 [Example 43, methyl 4-[4-(3-chlorophenyl)-2-thiazolyl]benzoate]
142 to 143 °C | COC(=O)c1cccc(-c2nc(-c3ccc(C(F)(F)F)cc3)cs2)c1 [Example 44, methyl 3-[4-(4-trifluoromethylphenyl)-2-thiazolyl]benzoate]
105 to 106 °C | COC(=O)c1cccc(-c2nc(-c3cccc(C(F)(F)F)c3)cs2)c1 [Example 45, methyl 3-[4-(3-trifluoromethylphenyl)-2-thiazolyl]benzoate]
121 to 122 °C | COC(=O)c1cccc(-c2nc(-c3ccc(F)cc3F)cs2)c1 [Example 46, methyl 3-[4-(2,4-difluorophenyl)-2-thiazolyl]benzoate]
108 to 109 °C | COC(=O)c1cccc(-c2nc(-c3ccc(OC)cc3)cs2)c1 [Example 47, methyl 3-[4-(4-methoxyphenyl)-2-thiazolyl]benzoate]
100 to 101 °C | CCOC(=O)c1cccc(-c2nc(-c3cc(C)oc3C)cs2)c1 [Example 49, ethyl 3-[4-(2,5-dimethyl-3-furyl)-2-thiazolyl]benzoate]
84 to 85 °C | COC(=O)c1cccc(-c2nc(-c3cccc(OC(F)(F)F)c3)cs2)c1 [Example 50, methyl 3-[4-(3-trifluoromethoxyphenyl)-2-thiazolyl]benzoate]
283 to 284 °C | O=C(O)c1ccc(-c2nc(-c3ccc(Cl)s3)cs2)cc1 [Example 53, 4-[4-(5-chloro-2-thienyl)-2-thiazolyl]benzoic acid]
> 300 °C | O=C(O)c1ccc(-c2csc(-c3cccnc3)n2)cc1 [Example 54, 4-[2-(3-pyridyl)-4-thiazolyl]benzoic acid]
289 to 290 °C | Cc1ccc(-c2csc(-c3ccc(C(=O)O)cc3)n2)cc1 [Example 56, 4-[4-(4-methylphenyl)-2-thiazolyl]benzoic acid]
303 to 304 °C | O=C(O)c1ccc(-c2nc(-c3cccnc3)cs2)cc1 [Example 57, 4-[4-(3-pyridyl)-2-thiazolyl]benzoic acid]
> 300 °C | O=C(O)c1ccc(-c2nc(-c3ccncc3)cs2)cc1 [Example 58, 4-[4-(4-pyridyl)-2-thiazolyl]benzoic acid]
> 300 °C | O=C(O)c1ccc(-c2csc(-c3ccncc3)n2)cc1 [Example 59, 4-[2-(4-pyridyl)-4-thiazolyl]benzoic acid]

Source: patent US6545009B1, “Retinoid-related receptor function regulating agent” (Takeda Chemical Industries, Ltd., priority 1998, dated 2003)
